Measured values taken from patent US20240423971A1, “APPLICATION OF RIP2 INHIBITOR COMBINED WITH CHEMOTHERAPY DRUG” (NINGBO COMBIREG PHARMACEUTICAL TECHNOLOGY CO., LTD., priority 2021, published 2024).

Assays:
Type in all cases: in vivo, C57BL/6 mice
melanoma (B16F10) [1] = assay: Melanoma (B16F10) tumor-bearing model, GSK583 combined with DTX; conditions: for tumor growth compared to the vehicle control group: B16-F10 s.c. in C57BL/6 mice, GSK583 1 mg/kg i.v. every 4 days x4, DTX 5 mg/kg i.v. every 7 days x3, to DAY 16
Description: Both of the test substances DTX and GSK583 were prepared as a 20×DMSO stock solution, which was diluted with normal saline containing 5% polyoxyethylene castor oil (Cremophor EL) to the administration concentration before use.
Experimental animals and tumor strains: SPF grade male wild-type C57BL/6 mice, 6 to 8 weeks old, purchased from Beijing Vital River Laboratory Animal Technology Co., Ltd. Cells used in the experiment: murine melanoma cells (B16-F10), purchased from ATCC.
Mice were randomly divided into 4 groups with 8 mice in each group based on body weight according to the method shown in (A and B of FIG. 4), namely: (i) vehicle control group; (ii) GSK583 (1 mg/kg) group; (iii) Docetaxel (DTX; 5 mg/kg) group; (iv) GSK583 (1 mg/kg)+DTX (5 mg/kg) group. DTX was administered intravenously once every 7 days for a total of 3 doses; GSK583 and vehicle control were administered intravenously once every 4 days for a total of 4 doses. The mice were subcutaneously inoculated with B16-F10 cells with a concentration of 2× 10^6 cells/mL and 0.1 mL/mouse, and the day of inoculation was recorded as DAY 0. The administration was started on DAY 1. During the administration, the animals were weighed every 2 days. The long diameter and short diameter of the tumor were measured with a vernier caliper. The tumor size was calculated by the formula: (½)×long diameter×(short diameter) 2. The mice were euthanized on DAY 16, and after dissection, the tumor was weighed and the tumor inhibition rate was calculated.

colorectal cancer (MC38) [2] = assay: Colorectal cancer (MC38) tumor-bearing model, GSK583 combined with OXA; conditions: GSK583 1 mg/kg; for tumor growth compared to the vehicle control group: MC38 s.c. in C57BL/6 mice, tumors 100 mm^3 at start, OXA 6 mg/kg i.v. once every 4 days, 4 doses, to DAY 14
Description: According to the method shown in (A and B of FIG. 10), the mice were subcutaneously inoculated with MC38 cells with a concentration of 5×10^6 cells/mL and 0.1 mL/mouse. […] OXA, GSK583, and vehicle were administered intravenously once every 4 days for a total of 4 doses. The day of grouping and administration was recorded as DAY 0. During the administration, the animals were weighed every 3 days. The long diameter and short diameter of the tumor were measured with a vernier caliper. The tumor size was calculated by the formula: (½)×long diameter×(short diameter) 2. The experiment was terminated on DAY 14. After the mice were euthanized and dissected, the tumor was weighed and photographed, and the tumor inhibition rate was calculated.

melanoma (B16F10) [3] = assay: Melanoma (B16F10) tumor-bearing model, GSK583 combined with GEM; conditions: GSK583 1 mg/kg; for tumor growth compared to the vehicle control group: B16-F10 s.c. in C57BL/6 mice, GEM 60 mg/kg i.v. once every 4 days, 4 doses, to DAY 15
Description: The test substance GEM was prepared in normal saline, and GSK583 was prepared as a 20×DMSO stock solution, which was diluted with normal saline containing 5% polyoxyethylene castor oil (Cremophor EL) to the administration concentration before use. Experimental animals and tumor strains: SPF grade male wild-type C57BL/6 mice, 6 to 8 weeks old, purchased from Beijing Vital River Laboratory Animal Technology Co., Ltd. Cells used in the experiment: murine melanoma cells (B16-F10), purchased from ATCC. Mice were randomly divided into 4 groups with 8 mice in each group based on body weight according to the method shown in (A and B of FIG. 6), namely: (i) vehicle control group; (ii) GSK583 (1 mg/kg) group; (iii) GEM (60 mg/kg) group; (iv) GSK583 (1 mg/kg)+GEM (60 mg/kg) group. GEM, GSK583, and vehicle control were administered intravenously once every 4 days for a total of 4 doses. The mice were subcutaneously inoculated with B16-F10 cells with a concentration of 2× 10^6 cells/mL and 0.1 mL/mouse, and the day of inoculation was recorded as DAY 0. The administration was started on DAY 1. During the administration, the animals were weighed every 2 days. The long diameter and short diameter of the tumor were measured with a vernier caliper. The tumor size was calculated by the formula: (½)× long diameter×(short diameter) 2. The experiment was terminated on DAY 15. After the mice were euthanized and dissected, the tumor was weighed and photographed, and the tumor inhibition rate was calculated.

colorectal cancer (MC38) [4] = assay: Colorectal cancer (MC38) tumor-bearing model, GSK583 combined with GEM; conditions: GSK583 1 mg/kg; for tumor growth compared to the vehicle control group: MC38 s.c. in C57BL/6 mice, tumors 50 to 100 mm^3 at start, GEM 40 mg/kg i.v. once every 4 days, 4 doses, to DAY 14
Description: The test substance GEM was prepared in normal saline, and GSK583 was prepared as a 20×DMSO stock solution, which was diluted with normal saline containing 5% polyoxyethylene castor oil (Cremophor EL) to the administration concentration before use. Experimental animals and tumor strains: SPF grade male wild-type C57BL/6 mice, 6 to 8 weeks old, purchased from Beijing Vital River Laboratory Animal Technology Co., Ltd. Cells used in the experiment: murine colorectal cancer cells (MC38), purchased from Union Cell Bank (China). According to the method shown in (A and B of FIG. 8), the mice were subcutaneously inoculated with MC38 cells with a concentration of 2×10^6 cells/mL and 0.1 mL/mouse. When the tumor grew to a volume within the range of 50 to 100 mm^3, the mice were randomly divided into 4 groups with 8 mice in each group based on tumor volume, and the administration was started with the following regimen: (i) vehicle control group; (ii) GSK583 (1 mg/kg) group; (iii) GEM (40 mg/kg) group; (iv) GSK583 (1 mg/kg)+GEM (40 mg/kg) group. GEM, GSK583, and vehicle were administered intravenously once every 4 days for a total of 4 doses. The day of grouping and administration was recorded as DAY 0. During the administration, the animals were weighed every 3 days. The long diameter and short diameter of the tumor were measured with a vernier caliper. The tumor size was calculated by the formula: (½)× long diameter× (short diameter) 2. The experiment was terminated on DAY 14. After the mice were euthanized and dissected, the tumor was weighed and photographed, and the tumor inhibition rate was calculated.

melanoma (B16F10) [5] = assay: Melanoma (B16F10) tumor-bearing model, GSK583 combined with PTX; conditions: B16-F10 s.c. in C57BL/6 mice; GSK583 1 mg/kg, PTX 10 mg/kg i.v. once every 4 days, 4 doses; to DAY 15
Description: Both of the test substances PTX (Sigma) and GSK583 (MCE) were prepared as a 20× DMSO stock solution, which was diluted with normal saline containing 5% (v/v) polyoxyethylene castor oil (Cremophor EL) to the administration concentration before use. Experimental animals and tumor strains: SPF grade male wild-type C57BL/6 mice, 6 to 8 weeks old, purchased from Beijing Vital River Laboratory Animal Technology Co., Ltd. Cells used in the experiment: murine melanoma cell line (B16-F10), purchased from ATCC. Mice were randomly divided into 4 groups with 8 mice in each group based on body weight according to the method shown in (A of FIG. 1 and B of FIG. 1), namely: (i) vehicle control group; (ii) GSK583 (1 mg/kg) group; (iii) PTX (10 mg/kg) group; (iv) GSK583 (1 mg/kg)+PTX (10 mg/kg) group. PTX, GSK583, and vehicle were administered intravenously once every 4 days for a total of 4 doses. The mice were subcutaneously inoculated with B16-F10 cells with a concentration of 2× 10^6 cells/mL and 0.1 mL/mouse, and the day of inoculation was recorded as DAY 0. The administration was started on DAY 1. During the administration, the animals were weighed every 2 days. The long diameter and short diameter of the tumor were measured with a vernier caliper. The tumor size was calculated by the formula: (½)×long diameter×(short diameter) 2. The experiment was terminated on DAY 15. After the mice were euthanized and dissected, the tumor was weighed and the tumor inhibition rate was calculated.

Row | Compound | tumor growth compared to the vehicle control group (melanoma (B16F10) [1]) | tumor growth compared to the vehicle control group (colorectal cancer (MC38) [2]) | tumor growth compared to the vehicle control group (melanoma (B16F10) [3]) | tumor growth compared to the vehicle control group (colorectal cancer (MC38) [4]) | also measured
1 | CC(=O)O[C@@]12CO[C@@H]1C[C@H](O)[C@@]1(C)C(=O)[C@H](O)C3=C(C)[C@@H](OC(=O)[C@H](O)[C@@H](NC(=O)OC(C)(C)C)c4ccccc4)C[C@@](O)([C@@H](OC(=O)c4ccccc4)[C@H]21)C3(C)C [DTX, Docetaxel] | significantly inhibited tumor growth |  |  |  | tumor weight at the end of the administration (melanoma (B16F10) [1]; B16-F10 in C57BL/6 mice, GSK583 1 mg/kg, DTX 5 mg/kg i.v., DAY 16, vs control group): significantly and statistically lower than that of the control group; growth rate of tumor volume (melanoma (B16F10) [1]; B16-F10 in C57BL/6 mice, GSK583 1 mg/kg, DTX 5 mg/kg i.v., vs control group): slower than that of the control group
2 | O=C1[O][Pt]2([NH][C@@H]3CCCC[C@H]3[NH]2)[O]C1=O [OXA, Oxaliplatin] |  | no significant inhibitory effect |  |  | growth rate of tumor volume (colorectal cancer (MC38) [2]; MC38 in C57BL/6 mice, OXA 6 mg/kg i.v. every 4 days x4): no significant inhibitory effect
3 | Nc1ccn([C@@H]2O[C@H](CO)[C@@H](O)C2(F)F)c(=O)n1 [GEM, Gemcitabine] |  |  | significantly inhibited tumor growth | no significant inhibitory effect | tumor weight at the end of the administration (melanoma (B16F10) [3]; B16-F10 in C57BL/6 mice, GEM 60 mg/kg i.v. every 4 days x4, DAY 15, vs control group): significantly and statistically lower than that of the control group; growth rate of tumor volume (melanoma (B16F10) [3]; B16-F10 in C57BL/6 mice, GEM 60 mg/kg i.v. every 4 days x4, vs control group): slower than that of the control group; growth rate of tumor volume (colorectal cancer (MC38) [4]; MC38 in C57BL/6 mice, GEM 40 mg/kg i.v. every 4 days x4): no significant inhibitory effect
4 | CC(C)(C)S(=O)(=O)c1ccc2nccc(Nc3n[nH]c4ccc(F)cc34)c2c1 [GSK583] | no significant inhibitory effect on tumor growth | no significant inhibitory effect on tumor growth | no significant inhibitory effect on tumor growth | no significant inhibitory effect on tumor growth | tumor growth compared to the vehicle control group (melanoma (B16F10) [5]): no significant inhibitory effect on tumor growth
